Patent US10450297B2, “Sulfonyl amide derivatives for the treatment of abnormal cell growth” (Pfizer, Inc., priority 2007, dated 2019)

Biological target: FAK kinase (catalytic construct FAK(410-689)) (Homo sapiens (Human), UniProt Q05397)
Assay: FAKcd kinase ELISA (inhibition of poly-glu-tyr phosphorylation by FAK(410-689))
Assay type: biochemical
Conditions: 50 μM final ATP

Sequence of FAK kinase (catalytic construct FAK(410-689)) (Q05397 410-689): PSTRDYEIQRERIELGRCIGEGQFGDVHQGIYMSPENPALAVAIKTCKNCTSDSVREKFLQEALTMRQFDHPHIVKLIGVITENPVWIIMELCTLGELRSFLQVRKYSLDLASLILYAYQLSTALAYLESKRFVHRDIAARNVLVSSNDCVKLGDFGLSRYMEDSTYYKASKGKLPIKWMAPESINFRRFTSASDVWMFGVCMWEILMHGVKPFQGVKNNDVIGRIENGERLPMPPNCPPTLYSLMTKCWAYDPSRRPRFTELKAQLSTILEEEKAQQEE

Row | SMILES | IC50
1 | CC(=O)NCC(=O)Nc1cccc(Nc2ncc(C(F)(F)F)c(NCc3cccc(N(C)S(C)(=O)=O)c3)n2)c1 [Compound 399, N-2-acetyl-N-(3-{[4-({3-[methyl(methylsulfonyl)amino]benzyl}amino)-5-(trifluoromethyl)pyrimidin-2-yl]amino}phenyl)glycinamide] | 5.57 nM
2 | CN(c1nccnc1CNc1nc(Nc2cc(C(N)=O)ccc2F)ncc1C(F)(F)F)S(C)(=O)=O [Compound 373, 4-fluoro-3-({4-[({3-[methyl(methylsulfonyl)amino]pyrazin-2-yl}methyl)amino]-5-(trifluoromethyl)pyrimidin-2-yl}amino)benzamide] | 7.49 nM
3 | CC[C@@H](CO)NC(=O)c1cccc(Nc2ncc(C(F)(F)F)c(NCc3cccnc3N(C)S(C)(=O)=O)n2)c1 [Compound 183, N-[(1S)-1-(hydroxymethyl)propyl]-3-({4-[({2-[methyl(methylsulfonyl)amino]pyridin-3-yl}methyl)amino]-5-(trifluoromethyl)pyrimidin-2-yl}amino)benzamide] | 1.96 nM
4 | COc1cc(C(N)=O)ccc1Nc1ncc(C(F)(F)F)c(NCc2cccnc2N(C)S(C)(=O)=O)n1 [Compound 48, 3-methoxy-4-({4-[({2-[methyl(methylsuffonyl)amino]pyridin-3-yl}methyl)amino]-5-(trifluoromethyl)pyrimidin-2-yl}amino)benzamide] | 0.59 nM
5 | CC(=O)NCC(=O)Nc1cccc(Nc2ncc(C(F)(F)F)c(NCc3ncccc3N(C)S(C)(=O)=O)n2)c1 [Compound 398, N~2~-acetyl-N-[3-({4-[({3-[methyl(methylsulfonyl)amino]pyridin-2-yl}methyl)amino]-5-(trifluoromethyl)pyrimidin-2-yl}amino)phenyl]glycinamide] | 2.18 nM
6 | CN(c1ncccc1CNc1nc(Nc2ccc(C(N)=O)cc2)ncc1C(F)(F)F)S(C)(=O)=O [Compound 19, 4-({4-[({2-[methyl(methylsulfonyl)amino]pyridin-3-yl}methyl)amino]-5-(trifluoromethyl)pyrimidin-2-yl}amino)benzamide] | 3.4 nM
7 | CN(c1ncccc1CNc1nc(Nc2ccc(C(O)CO)cc2)ncc1C(F)(F)F)S(C)(=O)=O (centres unmarked) [Compound 412, N-[3-({[2-{[4-(1,2-dihydroxyethyl)phenyl]amino}-5-(trifluoromethyl)pyrimidin-4-yl]amino}methyl)pyridin-2-yl]-N-methylmethane-sulfonamide] | < 0.595 nM
8 | C[C@@H](CO)NC(=O)c1cccc(Nc2ncc(C(F)(F)F)c(NCc3cccnc3N(C)S(C)(=O)=O)n2)c1 [Compound 211, N-[(1S)-2-hydroxy-1-methylethyl]-3-({4-[({2-[methyl(methylsulfonyl)amino]pyridin-3-yl}methyl)amino]-5-(trifluoromelhyl)pyrimidin-2-yl}amino)benzamide] | 1.06 nM
9 | COc1cccc(Nc2ncc(C(F)(F)F)c(NCc3cccnc3N(C)S(C)(=O)=O)n2)c1 [Compound 281, N-{3-[({2-[(3-methoxyphenyl)amino]-5-(trifluoromethyl)pyrimidin-4-yl}amino)methyl]pyridin-2-yl}-N-methylmethane-sulfonamide] | 0.6 nM
10 | CC(=O)NCC(=O)Nc1cccc(Nc2ncc(C(F)(F)F)c(NCc3nccnc3N(C)S(C)(=O)=O)n2)c1 [Compound 397, N-2-acetyl-N-[3-({4-[({3-[methyl(methylsulfonyl)amino]pyrazin-2-yl}methyl)amino]-5-(trifluoromethyl)pyrimidin-2-yl}amino)phenyl]glycinamide] | 1.51 nM
11 | CS(=O)(=O)c1cccc(CNc2nc(Nc3ccc(N4CCCS4(=O)=O)cc3)ncc2C(F)(F)F)c1 [Compound 29, N~2~-[4-(1,1-dioxidoisothiazolidin-2-yl)phenyl]-N-4~-[3-(methylsulfonyl)benzyl]-5-(trifluoromethyl)pyrimidine-2,4-diamine] | 2.09 nM
12 | CN(c1ncccc1CNc1nc(Nc2ccc(C(=O)NCC(C)(C)CO)cc2)ncc1C(F)(F)F)S(C)(=O)=O [Compound 256, N-(3-hydroxy-2,2-dimethylpropyl)-4-({4-[({2-[methyl(methylsulfonyl)amino]pyridin-3-yl}methyl)amino]-5-(trifluoromethyl)pyrimidin-2-yl}amino)benzamide] | 1.57 nM
13 | CC1CCCN1C(=O)c1cccc(Nc2ncc(C(F)(F)F)c(NCc3cccnc3N(C)S(C)(=O)=O)n2)c1 (centres unmarked) [Compound 155, N-methyl-N-[3-({[2-({3-[(2-methylpyrrolidin-1-yl)carbonyl]phenyl}amino)-5-(trifluoromethyl)pyrimidin-4-yl]amino}methyl)pyridin-2-yl]methanesulfonamide] | 9.75 nM
14 | CCN(CCOC)C(=O)c1cccc(Nc2ncc(C(F)(F)F)c(NCc3cccnc3N(C)S(C)(=O)=O)n2)c1 [Compound 195, N-ethyl-N-(2-methoxyethyl)-3-({4-[({2-[methyl(methylsulfonyl)amino]pyridin-3-yl}methyl)amino]-5-(trifluoromethyl)pyrimidin-2-yl}amino)benzamide] | 6.81 nM
15 | Cc1ccc(CNc2nc(Nc3ccccc3)ncc2C(F)(F)F)c(NS(C)(=O)=O)c1 [Compound 62, N-[2-({[2-anilino-5-(trifluoromethyl)pyrimidin-4-yl]amino}methyl)-5-methylphenyl]methanesulfonamide] | 10.3 nM
16 | CC(=O)Nc1cccc(Nc2ncc(C(F)(F)F)c(NCc3nccnc3N(C)S(C)(=O)=O)n2)c1 [Compound 385, N-[3-({4-[({3-[methyl(methylsulfonyl)amino]pyrazin-2-yl}methyl)amino]-5-(trifluoromethyl)pyrimidin-2-yl}amino)phenyl]acetamide] | 1.44 nM
17 | Cc1cc(C(N)=O)ccc1Nc1ncc(C(F)(F)F)c(NCc2cccnc2N(C)S(C)(=O)=O)n1 [Compound 341, 3-methyl-4-({4-[({2-[methyl(methylsulfonyl)amino]pyridin-3-yl}methyl)amino]-5-(trifluoromethyl)pyrimidin-2-yl}amino)benzamide] | < 0.595 nM
18 | CN(c1nccnc1CNc1nc(Nc2ccc(C(N)=O)cc2)ncc1C(F)(F)F)S(C)(=O)=O [Compound 71, 4-({4-[({3-[methyl(methylsulfonyl)amino]pyrazin-2-yl}methyl)amino]-5-(trifluoromethyl)pyrimidin-2-yl}amino)benzamide] | 0.6 nM
19 | CN(c1ncccc1CNc1nc(Nc2ccc(S(=O)(=O)Nc3ccccn3)cc2)ncc1C(F)(F)F)S(C)(=O)=O [Compound 61, 4-({4-[({2-[methyl(methylsulfonyl)amino]pyridin-3-yl}methyl)amino]-5-(trifluoromethyl)pyrimidin-2-yl}amino)-N-pyridin-2-ylbenzenesulfonamide] | 1.02 nM
20 | CN(C)C(=O)c1ccc(Nc2ncc(C(F)(F)F)c(NCc3cccc(N(C)S(C)(=O)=O)c3)n2)cc1 [Compound 228, N, N-dimethyl-4-{[4-({3-[methyl(methylsulfonyl)amino]benzyl}amino)-5-(trifluoromethyl)pyrimidin-2-yl]amino}benzamide] | 2.19 nM
21 | CN(c1ncccc1CNc1nc(NC2CCN(S(C)(=O)=O)CC2)ncc1C(F)(F)F)S(C)(=O)=O [Compound 36, N-methyl-N-[3-({[2-{[1-(methylsulfonyl)piperidin-4-yl]amino}-5-(trifluoromethyl)pyrimidin-4-yl]amino}methyl)pyridin-2-yl]methanesulfonamide] | 188 nM
22 | CN(c1cccnc1CNc1nc(Nc2cc(C(N)=O)ccc2F)ncc1C(F)(F)F)S(C)(=O)=O [Compound 378, 4-fluoro-3-({4-[({3-[methyl(methylsulfonyl)amino]pyridin-2-yl}methyl)amino]-5-(trifluoromethyl)pyrimidin-2-yl}amino)benzamide] | 1.94 nM
23 | CN(c1ncccc1CNc1nc(Nc2ccc(CNCC(C)(C)O)cc2)ncc1C(F)(F)F)S(C)(=O)=O [Compound 413, N-{3-[({2-[(4-{[(2-hydroxy-2-methylpropyl)amino]methyl}phenyl)amino]-5-(trifluoromethyl)pyrimidin-4-yl}amino)methyl]pyridin-2-yl}-N-methylmethanesulfonamide] | < 0.595 nM
24 | CN(c1ncccc1CNc1nc(Nc2cccc(CS(N)(=O)=O)c2)ncc1C(F)(F)F)S(C)(=O)=O [Compound 31, N-[3-({[2-({3-[(aminosulfonyl)methyl]phenyl}amino)-5-(trifluoronnethyl)pyrimidin-4-yl]amino}methyl)pyridin-2-yl]-N-methylmethane-sulfonatnide] | 2.22 nM
25 | C[C@@H]1COCCN1C(=O)c1ccc(Nc2ncc(C(F)(F)F)c(NCc3cccnc3N(C)S(C)(=O)=O)n2)cc1 [Compound 278, N-methyl-N-{3-(({2-[(4-{[(3R)-3-methylmorpholin-4-yl]carbonyl}phenyl)amino]-5-(trlfluoromethyl)pyrimidin-4-yl}amino)methyl]pyridin-2-yl]methanesulfonamide] | 6.64 nM
26 | CC1CCN(C(=O)c2cccc(Nc3ncc(C(F)(F)F)c(NCc4cccnc4N(C)S(C)(=O)=O)n3)c2)CC1 [Compound 197, N-methyl-N-[3-({[2-({3-[(4-methylpiperidin-1-yl)carbonyl]phenyl}amino)-5-(trifluoromethyl)pyrimidin-4-yl]amino}methyl)pyridin-2-yl]methanesulfonamide] | 4.47 nM
27 | CN(c1ncccc1CNc1nc(Nc2ccc(C(N)=O)nc2)ncc1C(F)(F)F)S(C)(=O)=O [Compound 372, 5-({4-[({2-[methyl(methylsulfonyl)amino]pyridin-3-yl}methyl)amino]-5-(trifluoromethyl)pyrimidin-2-yl}amino)pyridine-2-carboxamide] | 4 nM
28 | CN(c1ncccc1CNc1nc(Nc2ccc(C(=O)N3CCC[C@@H](O)C3)cc2)ncc1C(F)(F)F)S(C)(=O)=O [Compound 275, N-{3-[({2-[(4-{[(3R)-3-hydroxypiperidin-1-yl]carbonyl}phenyl)amino]-5-(trifluoromethyl)pyrimidin-4-yl}amino)methyl]pyridin-2-yl}-N-methylmethane-sulfonamide] | 2.36 nM
29 | CN(C)C(=O)c1ccc(Nc2ncc(C(F)(F)F)c(NCc3ccccc3NS(C)(=O)=O)n2)cc1 [Compound 225, N,N-dimethyl-4-{[4-({2-[(methylsuifonyl)amino]benzyl}amino)-5-(trifluoromethyl)pyrimidin-2-yl]amino}benzamide] | 0.98 nM
